Structures can show the parent of a compound that is named as a salt.
Legend:
3T3-L1 pre-adipocytes = test: Inhibition of adipocyte differentiation and lipid accumulation, Oil Red O; type: cell-based; conditions: 3T3-L1, compound 1 μM, MDI-induced differentiation for 8 days, Oil Red O eluted, absorbance 544 nm; for activity at 1 µM: Mus musculus, 192 h, read-out: lipid accumulation rate
Protocol: 3T3-L1 cells were seeded in a 6-well plate at a density of […] cells per well. The cells were grown to 100% confluency in Dulbecco's modified Eagle's medium (DMEM) supplemented with 10% bovine calf serum (BCS; GIBCO). Two days after reaching 100% confluency, differentiation was induced with or without treatment with the indoline compound at a concentration of 1 μM in DMEM containing 10% fetal bovine serum (FBS; GIBCO) and MDI (520 μM methylisobutylxanthine (IBMX; Sigma-Aldrich), 1 μM dexamethasone (Sigma-Aldrich), and 5 μM insulin (GIBCO)). On day 3, the medium was replaced with DMEM containing 10% FBS and 5 μM insulin with or without the indoline compound, and then with a fresh identical medium every 2 days. After differentiation for 8 days, the culture medium was removed, and the cells were washed with PBS and then fixed with 10% formaldehyde for 1 hour. After removing the 10% formaldehyde, the cells were washed thoroughly with distilled water. After that, 60% isopropanol was added and immediately then removed. After washing with distilled water, lipid droplets were stained with an Oil Red O dye solution for 20 minutes and then washed with distilled water. The cells were counterstained with Mayer's hematoxylin. Oil Red O images were visualized using a bright-field microscope (Nikon TE-2000U). To quantify the accumulated lipids, Oil Red O was eluted by adding isopropanol, and absorbance was measured spectrophotometrically at 544 nm using a multi-plate reader.
As A3051 (KY19382) and A3334, self-developed and synthesized materials were used. As BIO, or GSK 3 Inhibitor IX, also known as 6-bromoindirubin-3′-oxime, HY-10580 was purchased commercially.
In FIG. 2, the undifferentiated group (Un Diff) refers to undifferentiated adipocytes, or preadipocytes that had not been induced to differentiate, and the differentiated group (Diff) refers to fully differentiated adipocytes.

[1] = biological target: CXXC5-Dvl interaction (PDZ domain of Dvl (dishevelled) protein / PTD-DBM-FITC); test: CXXC5-Dvl binding inhibition, competition of PTD-DBM-FITC on plate-bound Dvl PDZ domain; conditions: purified Dvl PDZ domain 5 μg/mL, 10 μM PTD-DBM-FITC, compounds 0.001-100 μM, FITC fluorescence
Protocol: 5 μg/mL of the purified PDZ domain ofDvl (dishevelled) protein was attached to the bottom of a 96-well black immunoplate and left in a chamber at 4° C. for one day. The next day, each well was washed with PBS and 10 μM PTD-DBM-FITC was added. After incubation at room temperature for 3 hours, each well was washed with PBS. Each well was treated with the indoline derivatives at various concentrations (100, 10, 1, 0.1, 0.01, and 0.001 μM) in 100 μL of PBS. After washing with a buffer, fluorescence was measured by FITC using a microplate reader. A competition binding curve showing the degree of CXXC5-Dvl PPI inhibition was constructed using the GraphPad Prism software, and the IC50 value was calculated. […] CK090), and the intermediate compound 5-cyanoindirubin as controls.

[2] = tested on: lipid droplets / PPARγ in liver tissue; test: Liver Oil Red O staining and PPARγ immunohistochemistry in MASH mice; type: in vivo, C57BL/6N mice; conditions: 25 mg/kg/day orally for 4 weeks
Protocol: (§1) Five-week-old wild-type male C57BL/6N mice were purchased from Orient Bio Co., Ltd. They were allowed to acclimate to the laboratory environment for one week. Mice weighing 18-20 g on average were used in the experiment. To ensure ethical and scientific validity and efficient management of animal experiments, the experiment was conducted with the approval of the Institutional Review Board (IACUC-A-202205-1472-01) of Severance Hospital, Yonsei University College of Medicine.
(§2) The mice were divided into a normal group (NCD) and a high-fat diet group (HFD). The normal group (NCD) was fed a normal chow diet (NCD, Teklad Global 18% protein rodent diet), and the high-fat diet group (HFD) was fed a high-fat diet (HFD, D12492) in which fat accounted for 60% of the total calories, for 8 weeks.
(§3) Mice induced with metabolic dysfunction-associated steatohepatitis (MASH) (hereinafter, referred to as MASH or MASH group) were prepared by administering CCl4 intraperitoneally twice a week for 4 weeks after feeding the high-fat diet (HFD) for 8 weeks. The […] was diluted with corn oil at a ratio of 1:19 and injected at a dosage of 2 mL/kg. The normal group (NOD) was administered the same volume of physiological saline.
(§4) The animals were divided into 7 groups, each with 10 animals.
It was investigated whether the accumulation of triglycerides in the liver is suppressed effectively. For this purpose, liver tissue was extracted from each group, and it was prepared into 10-μm thick cryosections, which were then stained with Oil Red O. Details are as follows. After preparing the 7 groups, the animals were euthanized using carbon dioxide and the liver tissues were extracted. A certain area of the extracted liver tissue was cryosectioned to 10 μm thickness, fixed in 4% neutral paraformaldehyde for 20 minutes at room temperature, and washed with 70% isopropanol (Duksan Pure Chemicals). After staining with the Oil Red O (Sigma-Aldrich) reagent for 20 minutes, the sections were washed thoroughly three times with distilled water. The tissue was counterstained with Mayer's hematoxylin. Then, Oil Red O staining images were visualized using a bright-field microscope (Nikon TE-2000U).
After preparing the 7 groups, the animals were sacrificed using carbon dioxide and the liver tissues were extracted. The extracted tissues were fixed in 4% neutral paraformaldehyde and embedded in paraffin to prepare sections. The paraffin sections were cut to 4-μm thickness, deparaffinized, and then rehydrated. For antigen exposure, slides were autoclaved in a 10 mM sodium citrate buffer (pH 6.0). To block endogenous peroxidase activity prior to peroxidase IHC analysis, the tissues were incubated with 0.3% H2O2 for 10 minutes. The incubated sections were treated with phosphate-buffered saline (PBS) containing 10% NGS and 0.3% Tween-20 for 1 hour at room temperature, treated with primary antibodies of anti-PPARγ (1:50; Abcam), and incubated overnight at 4° C.
The sections treated with the primary antibodies were washed with PBS and incubated with biotinylated anti-mouse (1:400; Dako) or anti-rabbit (1:400; Dako) secondary antibodies for 1 hour at room temperature. The sections incubated with the secondary antibodies were stained with 3,3′-diaminobenzidine (DAB; Dako) for 3-7 minutes and then counterstained with Mayer's haematoxylin. All incubations were performed in a humid chamber. After the staining, images were taken and analyzed using a bright-field microscope (Nikon TE-2000U).

[3] = tested on: mice induced with metabolic dysfunction-associated steatohepatitis (MASH); test: Liver fibrosis score from collagen staining (Picrosirius red) in MASH mice; type: in vivo, C57BL/6N mice; conditions: 25 mg/kg/day orally for 4 weeks; mean±SD; normal group 0, MASH group 3.11
Protocol: as §1, §2, §3, §4
After preparing the 7 groups, the animals were euthanized using carbon dioxide and the liver tissues were extracted. The extracted tissues were fixed in 4% neutral paraformaldehyde and embedded in paraffin to prepare sections. The paraffin sections were cut to 4-μm thickness, deparaffinized, and then rehydrated. The hydrated sections were stained with a Weigert's iron hematoxylin solution for 8 minutes and then with Picrosirius red for 1 hour. Collagen fibers were stained red and nuclei were stained blue. The sections were photographed using a bright-field microscope (Nikon TE-2000U).
The main mechanism of nonalcoholic fatty liver disease is the induction of hepatic stellate cell activation, which induces collagen production and leads to liver fibrosis due to collagen accumulation. From the result of collagen staining (Picrosirius red) for observing the total amount of collagen deposition in Test Example 3-6, the liver fibrosis score was analyzed. Stages 2 to 3 were diagnosed as nonalcoholic fatty liver disease (MASH) (M. Brunt et al., 2005).
All quantitative data are presented as mean±standard deviation (SD). In each experiment, all measurements were made at least three times, and data were analyzed using the two-tailed, unpaired Student's t test. P values of <0.05 were considered statistically significant.

Row | SMILES | lipid accumulation rate (3T3-L1 pre-adipocytes) | IC50 [1] | activity at 1 µM (3T3-L1 pre-adipocytes) | lipid droplet formation and lipid infiltration in liver, Oil Red O staining [2] | Degree of liver fibrosis (fibrosis score) [3]
1 | O=C1Nc2cc(Br)ccc2/C1=C1/Nc2ccccc2/C1=N\O [BIO, 6-bromoindirubin-3′-oxime, reference compound] | 79.4% | – | – | – | –
2 | Cc1cc2c(cc1Cl)NC(=O)/C2=C1\Nc2ccccc2\C1=N/OCCN1CCN(C)CC1 [CK090, (2Z,3E)-6′-chloro-5′-methyl-3-((2-(4-methylpiperazin-1-yl)ethoxy)imino)-[2,3′-biindolinylidene]-2′-one, reference compound] | – | 4220 nM | – | – | –
3 | N#Cc1ccc2c(c1)/C(=C1/Nc3ccccc3/C1=N\OCCN1CCNCC1)C(=O)N2 [Example 1, (2Z,3E)-2′-oxo-3-((2-(piperazin-1-yl)ethoxy)imino)-[2,3′-biindolinylidene]-5′-carbonitrile] | – | 19.3 nM | 32.2% | the size and number of lipid droplets were significantly reduced | 2.00
4 | N#Cc1ccc2c(c1)/C(=C1/Nc3ccccc3/C1=N\OCCN1CCOCC1)C(=O)N2 [Example 2, (2Z,3E)-3-((2-morpholinoethoxy)imino)-2′-oxo-[2,3′-biindolinylidene]-5′-carbonitrile] | – | 8.61 nM | 32.3% | the size and number of lipid droplets were significantly reduced | 1.85
5 | N#Cc1ccc2c(c1)/C(=C1/Nc3ccccc3/C1=N\OCCN1CCCCC1)C(=O)N2 [Example 5, (2Z,3E)-2′-oxo-3-((2-(piperidin-1-yl)ethoxy)imino)-[2,3′-biindolinylidene]-5′-carbonitrile] | – | 9.29 nM | 26.2% | – | –
6 | N#Cc1ccc2c(c1)/C(=C1/Nc3ccccc3/C1=N\OCCN1CCCC1)C(=O)N2 [Example 6, (2Z,3E)-2′-oxo-3-((2-(pyrrolidin-1-yl)ethoxy)imino)-[2,3′-biindolinylidene]-5′-carbonitrile] | – | 37 nM | 25.8% | – | –
7 | N#Cc1ccc2c(c1)/C(=C1/Nc3ccccc3/C1=N\OCCCN1CCCCC1)C(=O)N2 [Example 7, (2Z,3E)-2′-oxo-3-((3-(piperidin-1-yl)propoxy)imino)-[2,3′-biindolinylidene]-5′-carbonitrile] | – | 10.8 nM | 33.6% | – | –
8 | N#Cc1ccc2c(c1)/C(=C1/Nc3ccccc3/C1=N\OCCCN1CCCC1)C(=O)N2 [Example 8, (2Z,3E)-2′-oxo-3-((3-(pyrrolidin-1-yl)propoxy)imino)-[2,3′-biindolinylidene]-5′-carbonitrile] | – | 17.2 nM | 25.1% | – | –
9 | N#Cc1ccc2c(c1)/C(=C1/Nc3ccccc3/C1=N\OCCCN1CCNCC1)C(=O)N2 [Example 9, (2Z,3E)-2′-oxo-3-((3-(piperazin-1-yl)propoxy)imino)-[2,3′-biindolinylidene]-5′-carbonitrile] | – | 20.4 nM | 25.4% | – | –
10 | N#Cc1ccc2c(c1)/C(=C1/Nc3ccccc3/C1=N\OCCCN1CCOCC1)C(=O)N2 [Example 10, (2Z,3E)-3-((3-morpholinopropoxy)imino)-2′-oxo-[2,3′-biindolinylidene]-5′-carbonitrile] | – | 12.7 nM | 24.3% | – | –
11 | CN1CCN(CCCO/N=C2/C(=C3/C(=O)Nc4ccc(C#N)cc43)Nc3ccccc32)CC1 [Example 11, (2Z,3E)-3-((3-(4-methylpiperazin-1-yl)propoxy)imino)-2′-oxo-[2,3′-biindolinylidene]-5′-carbonitrile] | – | 12.3 nM | 24.1% | – | –
12 | N#Cc1ccc2c(c1)/C(=C1/Nc3ccccc3/C1=N\OCCCN1CCSCC1)C(=O)N2 [Example 12, (2Z,3E)-2′-oxo-3-((3-thiomorpholinopropoxy)imino)-[2,3′-biindolinylidene]-5′-carbonitrile] | – | 6.26 nM | 27.4% | – | –
13 | N#Cc1ccc2c(c1)/C(=C1/Nc3ccccc3/C1=N\OCCN1CCS(=O)(=O)CC1)C(=O)N2 [Example 13, (2Z,3E)-3-((2-(1,1-dioxidothiomorpholino)ethoxy)imino)-2′-oxo-[2,3′-biindolinidene]-5′-carbonitrile] | – | 2.65 nM | 26.6% | – | –
14 | N#Cc1ccc2c(c1)/C(=C1/Nc3ccccc3/C1=N\OCCN1CC[S+]([O-])CC1)C(=O)N2 [Example 14, (2Z,3E)-3-((2-(1-oxidothiomorpholino)ethoxy)imino)-2′-oxo-[2,3′-biindolinidene]-5′-carbonitrile hydrochloride] | – | 26.1 nM | 26.8% | – | –
15 | N#Cc1ccc2c(c1)/C(=C1/Nc3ccccc3/C1=N\OCCN1CCCC1C(=O)O)C(=O)N2 (centres unmarked) [Example 15, (2-((((2Z,3E)-5′-cyano-2′-oxo-[2,3′-biindolinidene]-3-ylidene)amino)oxy)ethyl)proline] | – | 45.2 nM | 24.8% | – | –
16 | COc1ccc2c(c1)/C(=C1/Nc3ccccc3/C1=N\O)C(=O)N2 [Example A3334, reference compound] | 78.7% | – | – | – | –
17 | O=C1Nc2ccccc2/C1=C1/Nc2ccccc2C1=O [Indirubin, (Z)-[2,3′-biindolinylidene]-2′,3-dione, reference compound] | – | 53900 nM | 96.4% | – | –

Reference: patent US20260250247A1, “NOVEL INDOLINE DERIVATIVE AND USE THEREOF” (CK REGEON INC., priority 2023, published 2026)
